US8093028B2, “Engineered glycosyltransferases with expanded substrate specificity” (Wisconsin Alumni Research Foundation, priority 2007, dated 2012)

Columns and labels:
Format in all cases: biochemical
OleD P67T/S132F/A242V [1] = target: T1, OleD P67T/S132F/A242V (Streptomyces antibioticus, UniProt Q53685, A242V/P67T/S132F)
T1 construct: made in house; host or cells: E. coli (site-directed mutant of pET28/OleD)
Experimental: Kinetic parameters kcat and Km were determined with both 4-Me-umb FIG. 1: 4 and UPDG as variable substrates using assay conditions as described above. […] Each experiment was performed in triplicate. Initial velocities were fitted to the Michaelis-Menten equation using Sigma Plot.
Enzyme assays were carried out in a total volume of 500 μl 50 mM Tris-HCl (pH 8.0) containing 5 mM MgCl2, and 50 μg pure enzyme. Kinetic parameters kcat and Km were determined with both 4-Me-umb FIG. 1: 4 and UPDG (FIG. 3: 2) as variable substrates. […] Each experiment was performed in triplicate. Initial velocities were fitted to the Michaelis-Menten equation using Sigma Plot.

OleD A242V = target: T2, OleD A242V (Streptomyces antibioticus, UniProt Q53685, A242V/P55A/R82V/R83E/T84P); experiment: Specific activity with novobiocic acid or 4-Me-umb as acceptor and UDP-Glc; conditions: UDP-Glc donor
T2 construct: made in house; host or cells: E. coli BL21(DE3)pLysS (error-prone PCR clone in pET28a)
Experimental: (§1) Determination of specific activity with 1 or 4 as acceptor. Enzyme reactions were carried out in a total volume of 100 μl/50 mM Tris-HCl (pH8.0) containing 5 mM MgCl2, 200 μM (FIG. 9: 1) or (FIG. 9: 4), 5 mM (FIG. 12: 5), and typically 10-50 μg pure enzyme. At a suitable time interval during which rate of product formation was linear with time (typically 2-20 min), reactions were quenched with 100 μl MeOH, and the samples centrifuged at 10,000 g for 10 min. Supernatants were analyzed by analytical reverse-phase HPLC with a Gemini 5μ C18 column (Phenomenex) using a gradient of 10-90% CH3CN in 0.1% trifluoroacetic acid (TFA)/H2O in 20 min, with detection at 254 nm. […] The identity of (FIG. 9: 7) was confirmed by LC-MS and NMR while the […] of glucoside (FIG. 9: 6) was confirmed by co-elution with a commercial standard and LC-MS analysis. HPLC peak areas were integrated, and the product concentrations calculated as a percent of the total peak area. Specific activity was expressed as nmols product formed/min/mg protein.

OleD G340W = target: T3, OleD G340W (Streptomyces antibioticus, UniProt Q53685, G340W/P55A/R82V/R83E/T84P); experiment: as above; conditions: UDP-Glc donor
T3 construct: made in house; host or cells: E. coli (site-directed mutant of pET28/OleD)
Experimental: as §1

OleD I112T = target: T4, OleD I112T (Streptomyces antibioticus, UniProt Q53685, I112T/P55A/R82V/R83E/T84P); experiment: as above; conditions: UDP-Glc donor
T4 construct: made in house; host or cells: E. coli (site-directed mutant of pET28/OleD)
Experimental: as §1

OleD P67T = target: T5, OleD P67T (Streptomyces antibioticus, UniProt Q53685, P55A/P67T/R82V/R83E/T84P); experiment: as above; conditions: UDP-Glc donor
T5 construct: made in house; host or cells: E. coli (site-directed mutant of pET28/OleD)
Experimental: as §1

OleD S132F = target: T6, OleD S132F (Streptomyces antibioticus, UniProt Q53685, P55A/R82V/R83E/S132F/T84P); experiment: as above; conditions: UDP-Glc donor
T6 construct: made in house; host or cells: E. coli (site-directed mutant of pET28/OleD)
Experimental: as §1

OleD P67T/I112K/A242V = OleD P67T/I112K/A242V (Streptomyces antibioticus, UniProt Q53685, A242V/I112K/P67T); experiment: Specific activity with novobiocic acid as acceptor and UDP-Glc; conditions: UDP-Glc donor
Experimental: as §1

OleD P67T/S132F/A242V [2] = target: T1, OleD P67T/S132F/A242V; experiment: as above; conditions: UDP-Glc donor
Experimental: as §1

WT OleD = target: T7, WT OleD (Streptomyces antibioticus, UniProt Q53685, P55A/R82V/R83E/T84P); conditions: named substrate varied, other substrate fixed at 5 mM
T7 construct: made in house; host or cells: E. coli BL21(DE3)pLysS, plasmid pET28/OleD
Experimental: Determination of kinetic parameters. Enzyme assays were carried out in a total volume of 100 μl 50 mM Tris-HCl (pH 8.0) containing 5 mM MgCl2, and typically 10-50 μg pure enzyme. Kinetic parameters kcat and Km were determined with both (FIG. 9: 1) and (FIG. 12: 5) as variable substrates. […] Each experiment was performed in triplicate. Aliquots ([…]) were removed between 0 and 30 min, at which time product formation was still linear with respect to time, and quenched with 100 μl of ice-cold MeOH, and centrifuged at 10,000 g for 10 min. Supernatants were analyzed by analytical reverse-phase HPLC as described above. The substrate (FIG. 9: 1) and the glucoside product (FIG. 9: 7) HPLC peak areas were integrated, and the product concentration calculated as a percent of the total peak area. Initial velocities were fitted to the Michaelis-Menten equation using Sigma Plot.

Row | SMILES | kcat (OleD P67T/S132F/A242V [1]; acceptor 4 varied) [s⁻¹] | efficiency of glucosylation compared to the WT enzyme (OleD P67T/S132F/A242V [1]; kcat/Km, unnatural acceptor 4-methyl-umbelliferone) [fold] | Km (OleD P67T/S132F/A242V [1]; read-out: apparent Km, named substrate varied, other substrate fixed) [µM] | improvement in specific activity, A242V compared to WT OleD (OleD A242V) | specific activity, G340W compared to WT OleD (OleD G340W) | specific activity, I112T compared to WT OleD (OleD I112T) | improvement in specific activity, P67T compared to WT OleD (OleD P67T) | improvement in specific activity, S132F compared to WT OleD (OleD S132F) | improvement in specific activity, P67T/I112K/A242V over P67T/S132F/A242V (OleD P67T/I112K/A242V) | improvement, P67T/I112K/A242V over the parent P67T/I112T/A242V (OleD P67T/I112K/A242V; purified enzymes) | improvement in glucosylation activity, P67T/S132F/A242V compared to WT OleD (OleD P67T/S132F/A242V [2]) | Km (WT OleD) [µM] | kcat (WT OleD) [s⁻¹]
1 | Cc1cc(=O)oc2cc(O)ccc12 [4-Me-umb (4), 7-hydroxy-4-methylcoumarin] | 0.0247 | ~60 | 140 | ~2.3 fold | approximately 0.5 fold | approximately 0.5 fold | approximately 7 fold | ~2.6 fold |  |  |  |  | 
2 | CC(C)=CCc1cc(C(=O)Nc2c(O)c3ccc(O)c(C)c3oc2=O)ccc1O [novobiocic acid (29), novobiocic acid] |  |  |  | two-three fold | non-beneficial | 7.4 fold | two-three fold | two-three fold | twenty-eight | seven | five-fold | 2000 | 0.000683
